For 20 compounds, selectivity ratio, HC50 and MIC results are on record in ChEMBL document CHEMBL3813667, “Triterpene sapogenin-polyarginine conjugates exhibit promising antibacterial activity against Gram-positive strains” (Bioorg Med Chem, 2016).

Converted amounts (≈) assume the structure as drawn. Where a SMILES comes first, the peptide text is derived from it. Some results are limits rather than exact numbers.

Series [1] can be described thus: Therapeutic index, ratio of HC50 for human erythrocytes to MIC for Bacillus subtilis ATCC 6633. The settings on record: read-out: TI.
Series [2] can be described thus: Toxicity against human erythrocytes assessed as hemolysis after 1 hr by spectrophotometric analysis. The series is classed as cell-based, Erythrocyte.
The next series relates to Escherichia coli. Kind of series: Antibacterial activity against Escherichia coli ATCC 25922 after 16 hrs by broth microdilution method. The series is classed as functional. The settings on record: ATCC 25922, 16 h.
Another series deals with Bacillus spizizenii. Kind of series: Antibacterial activity against Bacillus subtilis ATCC 6633 after 16 hrs by broth microdilution method. The series is classed as functional. The following applies: ATCC 6633, 16 h. In general terms: Broth dilution looks for growth in wells or tubes with falling amounts of substance.
Another series relates to Staphylococcus aureus. Kind of series: Antibacterial activity against Staphylococcus aureus ATCC 25923 after 16 hrs by broth microdilution method. The settings on record: ATCC 25923, 16 h. The series is classed as functional.
Series [3] can be described thus: Therapeutic index, ratio of HC50 for human erythrocytes to MIC for Staphylococcus aureus ATCC 25923. The following applies: read-out: TI.

Turning to `C=C(C)[C@@H]1CC[C@]2(C(=O)O)CC[C@]3(C)[C@H](CC[C@@H]4[C@@]5(C)CC[C@H](OC(=O)CCc6cn(CC(=O)N[C@@H](CCCNC(=N)N)C(=O)O)nn6)C(C)(C)[C@@H]5CC[C@]43C)[C@@H]12`, the selectivity ratio in series [1] was over 51. In addition, the HC50 at 1 h in series [2] was over 1010 µM. Moreover, the results for the MIC in the series with Escherichia coli, in the series with Bacillus spizizenii and in the series on Staphylococcus aureus were over 157 µM, 19.6 µM (≈ 15.6 µg/mL) and over 157 µM, respectively.
As to `C[C@H]1[C@H](C)CC[C@]2(C(=O)O)CC[C@]3(C)C(=CC[C@@H]4[C@@]5(C)CC[C@H](O)C(C)(C)[C@@H]5CC[C@]43C)[C@H]12` [URSOLIC ACID], the results for the MIC in the series with Escherichia coli, in the series on Bacillus spizizenii and with Staphylococcus aureus were over 1100 µM, 68 µM (≈ 31.1 µg/mL) and 137 µM (≈ 62.6 µg/mL), respectively.
On to `C=C(C)[C@@H]1CC[C@]2(C(=O)O)CC[C@]3(C)[C@H](CC[C@@H]4[C@@]5(C)CC[C@H](OC(=O)CCc6cn(CC(=O)N[C@@H](CCCNC(=N)N)C(=O)N[C@@H](CCCNC(=N)N)C(=O)O)nn6)C(C)(C)[C@@H]5CC[C@]43C)[C@@H]12`, for which the selectivity ratio in series [1] was over 205; in series [3], over 103. Also, in series [2], the HC50 at 1 h was over 841 µM. Besides, the MIC with Escherichia coli was over 131 µM; with Bacillus spizizenii, 4.1 µM (≈ 3.9 µg/mL); against Staphylococcus aureus it was 8.2 µM (≈ 7.79 µg/mL).
On to `N=C(N)NCCC[C@H](NC(=O)[C@H](CCCNC(=N)N)NC(=O)[C@H](CCCNC(=N)N)NC(=O)[C@H](CCCNC(=N)N)NC(=O)[C@H](CCCNC(=N)N)NC(=O)[C@H](CCCNC(=N)N)NC(=O)[C@H](CCCNC(=N)N)NC(=O)[C@@H](N)CCCNC(=N)N)C(=O)O`, for which the MIC against Escherichia coli came to 197 µM (≈ 250 µg/mL); against Bacillus spizizenii, 12.3 µM (≈ 15.6 µg/mL); in the series on Staphylococcus aureus, 24.6 µM (≈ 31.2 µg/mL).
Turning to `C[C@H]1[C@H](C)CC[C@]2(C(=O)OCc3cn(CC(=O)N[C@@H](CCCNC(=N)N)C(=O)N[C@@H](CCCNC(=N)N)C(=O)O)nn3)CC[C@]3(C)C(=CC[C@@H]4[C@@]5(C)CC[C@H](O)C(C)(C)[C@@H]5CC[C@]43C)[C@H]12`, the selectivity ratio in series [1] and in series [3] was 11 each time. For the same compound, the HC50 at 1 h in series [2] worked out at 49 µM. Besides, the minimal inhibitory concentration (MIC) was over 138 µM in the series with Escherichia coli, 4.3 µM (≈ 3.91 µg/mL) in the series on Bacillus spizizenii and 4.3 µM (≈ 3.91 µg/mL) in the series on Staphylococcus aureus.
`C[C@H]1[C@H](C)CC[C@]2(C(=O)O)CC[C@]3(C)C(=CC[C@@H]4[C@@]5(C)CC[C@H](OC(=O)CCc6cn(CC(=O)N[C@@H](CCCNC(=N)N)C(=O)O)nn6)C(C)(C)[C@@H]5CC[C@]43C)[C@H]12`: the selectivity ratio was determined as 8 in series [1] and 2 in series [3]. For the same compound, in series [2], the HC50 at 1 h was determined as 158 µM. Besides, the MIC is over 157 µM with Escherichia coli, 19.6 µM (≈ 15.6 µg/mL) against Bacillus spizizenii and 78.6 µM (≈ 62.4 µg/mL) in the series on Staphylococcus aureus.
For the compound `C[C@H]1[C@H](C)CC[C@]2(C(=O)OCc3cn(CC(=O)N[C@@H](CCCNC(=N)N)C(=O)N[C@@H](CCCNC(=N)N)C(=O)N[C@@H](CCCNC(=N)N)C(=O)O)nn3)CC[C@]3(C)C(=CC[C@@H]4[C@@]5(C)CC[C@H](O)C(C)(C)[C@@H]5CC[C@]43C)[C@H]12`, the selectivity ratio in series [1] and in series [3] was 8 in each case. Also, the HC50 at 1 h in series [2] came to 29 µM. Moreover, the MIC in the series with Escherichia coli is 14.7 µM (≈ 15.6 µg/mL); in the series with Bacillus spizizenii it was 3.7 µM (≈ 3.94 µg/mL); in the series on Staphylococcus aureus, 3.7 µM (≈ 3.94 µg/mL).
`C[C@H]1[C@H](C)CCC2(C(=O)O)CC[C@]3(C)C(=CC[C@@H]4[C@@]5(C)CC[C@H](OC(=O)CCc6cn(CC(=O)N[C@@H](CCCNC(=N)N)C(=O)N[C@@H](CCCNC(=N)N)C(=O)N[C@@H](CCCNC(=N)N)C(=O)N[C@@H](CCCNC(=N)N)C(=O)N[C@@H](CCCNC(=N)N)C(=O)N[C@@H](CCCNC(=N)N)C(=O)N[C@@H](CCCNC(=N)N)C(=O)N[C@@H](CCCNC(=N)N)C(=O)O)nn6)C(C)(C)[C@@H]5CC[C@]43C)[C@H]12` (single isomer, unassigned): the selectivity ratio in series [1] and in series [3] was over 103 each time. Further, the HC50 at 1 h in series [2] was over 424 µM. Moreover, the MIC is over 66 µM against Escherichia coli, 4.1 µM (≈ 7.74 µg/mL) against Bacillus spizizenii and 4.1 µM (≈ 7.74 µg/mL) against Staphylococcus aureus.
On to `C[C@H]1[C@H](C)CC[C@]2(C(=O)OCc3cn(CC(=O)N[C@@H](CCCNC(=N)N)C(=O)O)nn3)CC[C@]3(C)C(=CC[C@@H]4[C@@]5(C)CC[C@H](O)C(C)(C)[C@@H]5CC[C@]43C)[C@H]12`, for which the figures for the selectivity ratio in series [1] and in series [3] were 16 and 8, respectively. Besides, the HC50 at 1 h in series [2] was determined as 83 µM. Also, the MIC in the series on Escherichia coli was over 166 µM; against Bacillus spizizenii it was 5.2 µM (≈ 3.91 µg/mL); against Staphylococcus aureus it was 10.4 µM (≈ 7.82 µg/mL).
Regarding `C[C@H]1[C@H](C)CC[C@]2(C(=O)OCc3cn(CC(=O)N[C@@H](CCCNC(=N)N)C(=O)N[C@@H](CCCNC(=N)N)C(=O)N[C@@H](CCCNC(=N)N)C(=O)N[C@@H](CCCNC(=N)N)C(=O)N[C@@H](CCCNC(=N)N)C(=O)N[C@@H](CCCNC(=N)N)C(=O)N[C@@H](CCCNC(=N)N)C(=O)N[C@@H](CCCNC(=N)N)C(=O)O)nn3)CC[C@]3(C)C(=CC[C@@H]4[C@@]5(C)CC[C@H](O)C(C)(C)[C@@H]5CC[C@]43C)[C@H]12`, the selectivity ratio in series [1] and in series [3] was 10 throughout. Besides, in series [2], the HC50 at 1 h amounted to 41 µM. Besides, the MIC in the series on Escherichia coli was over 68 µM; in the series with Bacillus spizizenii, 4.2 µM (≈ 7.75 µg/mL); with Staphylococcus aureus it was 4.2 µM (≈ 7.75 µg/mL).
For the compound `C=C(C)[C@@H]1CC[C@]2(C(=O)O)CC[C@]3(C)[C@H](CC[C@@H]4[C@@]5(C)CC[C@H](OC(=O)CCc6cn(CC(=O)N[C@@H](CCCNC(=N)N)C(=O)N[C@@H](CCCNC(=N)N)C(=O)N[C@@H](CCCNC(=N)N)C(=O)N[C@@H](CCCNC(=N)N)C(=O)N[C@@H](CCCNC(=N)N)C(=O)N[C@@H](CCCNC(=N)N)C(=O)N[C@@H](CCCNC(=N)N)C(=O)N[C@@H](CCCNC(=N)N)C(=O)O)nn6)C(C)(C)[C@@H]5CC[C@]43C)[C@@H]12`, the selectivity ratio in series [1] and in series [3] was over 103 throughout. In series [2], the HC50 at 1 h was over 424 µM. For the same compound, the MIC was over 66 µM in the series on Escherichia coli, 4.1 µM (≈ 7.74 µg/mL) against Bacillus spizizenii and 4.1 µM (≈ 7.74 µg/mL) in the series with Staphylococcus aureus.
For `N=C(N)NCCC[C@H](NC(=O)[C@H](CCCNC(=N)N)NC(=O)[C@@H](N)CCCNC(=N)N)C(=O)O` (H-Arg-Arg-Arg-OH), the MIC is over 1300 µM in the series with Escherichia coli, over 1030 µM against Bacillus spizizenii and over 1030 µM against Staphylococcus aureus.
`C=C(C)[C@@H]1CC[C@]2(C(=O)O)CC[C@]3(C)[C@H](CC[C@@H]4[C@@]5(C)CC[C@H](OC(=O)CCc6cn(CC(=O)N[C@@H](CCCNC(=N)N)C(=O)N[C@@H](CCCNC(=N)N)C(=O)N[C@@H](CCCNC(=N)N)C(=O)N[C@@H](CCCNC(=N)N)C(=O)N[C@@H](CCCNC(=N)N)C(=O)O)nn6)C(C)(C)[C@@H]5CC[C@]43C)[C@@H]12`: the selectivity ratio in series [1] and in series [3] was 117 each time. For the same compound, the HC50 at 1 h in series [2] amounted to 323 µM. Also, the minimum inhibitory concentration (MIC) against Escherichia coli was over 88 µM; against Bacillus spizizenii it was 2.7 µM (≈ 3.83 µg/mL); in the series on Staphylococcus aureus it was 2.7 µM (≈ 3.83 µg/mL).
On to `C[C@H]1[C@H](C)CCC2(C(=O)O)CC[C@]3(C)C(=CC[C@@H]4[C@@]5(C)CC[C@H](OC(=O)CCc6cn(CC(=O)N[C@@H](CCCNC(=N)N)C(=O)N[C@@H](CCCNC(=N)N)C(=O)N[C@@H](CCCNC(=N)N)C(=O)N[C@@H](CCCNC(=N)N)C(=O)N[C@@H](CCCNC(=N)N)C(=O)O)nn6)C(C)(C)[C@@H]5CC[C@]43C)[C@H]12` (single isomer, unassigned), for which the MIC in the series with Escherichia coli was over 88 µM; against Bacillus spizizenii, 2.7 µM (≈ 3.83 µg/mL); in the series on Staphylococcus aureus, 5.5 µM (≈ 7.8 µg/mL).
As to `C=C(C)[C@@H]1CC[C@]2(C(=O)OCc3cn(CC(=O)N[C@@H](CCCNC(=N)N)C(=O)N[C@@H](CCCNC(=N)N)C(=O)N[C@@H](CCCNC(=N)N)C(=O)N[C@@H](CCCNC(=N)N)C(=O)N[C@@H](CCCNC(=N)N)C(=O)N[C@@H](CCCNC(=N)N)C(=O)N[C@@H](CCCNC(=N)N)C(=O)N[C@@H](CCCNC(=N)N)C(=O)O)nn3)CC[C@]3(C)[C@H](CC[C@@H]4[C@@]5(C)CC[C@H](O)C(C)(C)[C@@H]5CC[C@]43C)[C@@H]12`, the MIC against Escherichia coli was over 68 µM; with Bacillus spizizenii it was 4.2 µM (≈ 7.75 µg/mL); against Staphylococcus aureus, 4.2 µM (≈ 7.75 µg/mL).
As to `C[C@H]1[C@H](C)CC[C@]2(C(=O)O)CC[C@]3(C)C(=CC[C@@H]4[C@@]5(C)CC[C@H](OC(=O)CCc6cn(CC(=O)N[C@@H](CCCNC(=N)N)C(=O)N[C@@H](CCCNC(=N)N)C(=O)O)nn6)C(C)(C)[C@@H]5CC[C@]43C)[C@H]12`, the MIC against Escherichia coli is over 131 µM; against Bacillus spizizenii, 4.1 µM (≈ 3.9 µg/mL); in the series on Staphylococcus aureus, 8.2 µM (≈ 7.79 µg/mL).
The matching figures for H-RRRRR-OH: over 627 µM, 313 µM and over 627 µM.
On the same counts, the results for `NC(N)=NCCC[C@H](NC(=O)[C@@H](N)CCCN=C(N)N)C(=O)O` (H-Arg-Arg-OH) are over 1520 µM, over 1520 µM and over 1520 µM.
For the compound `C[C@H]1[C@H](C)CC[C@]2(C(=O)OCc3cn(CC(=O)N[C@@H](CCCNC(=N)N)C(=O)N[C@@H](CCCNC(=N)N)C(=O)N[C@@H](CCCNC(=N)N)C(=O)N[C@@H](CCCNC(=N)N)C(=O)N[C@@H](CCCNC(=N)N)C(=O)O)nn3)CC[C@]3(C)C(=CC[C@@H]4[C@@]5(C)CC[C@H](O)C(C)(C)[C@@H]5CC[C@]43C)[C@H]12`, the selectivity ratio is 11 in series [1] and 6 in series [3]. The HC50 at 1 h in series [2] was determined as 25 µM. In addition, the MIC against Escherichia coli was over 91 µM; against Bacillus spizizenii, 2.8 µM (≈ 3.85 µg/mL); against Staphylococcus aureus it was 5.7 µM (≈ 7.85 µg/mL).
`N=C(N)NCCC[C@H](N)C(=O)O` [ARGININE]: the MIC against Escherichia coli, against Bacillus spizizenii and in the series on Staphylococcus aureus was over 2890 µM throughout.

What is called HC50 is the concentration giving 50% haemolysis. As a reminder, the MIC is the smallest concentration in the dilution series that meets the test's criterion for growth inhibition. Higher therefore signals a less susceptible organism.
